Test results: patent publication US20230301958A1, “SATRAPLATIN FOR USE IN THE TREATMENT OF LYMPHOID NEOPLASMS” (priority 2020, published 2023)

Key:
DLBCL cell lines = assay: CellTiter-Glo luminescent cell viability assay, DLBCL cell lines; assay type: cell-based, human; settings: 72h incubation, CTG assay
Experimental: (§1) Hereto, the 50% inhibitory concentration (IC50) was determined in said cancer cell lines using the CellTiter-Glo® (CTG) luminescent cell viability assay after a 72h incubation with different concentrations of the two drugs ranging from 10 nM to 100 uM.
(§2) All cell lines were cultured in the media supplemented with 10-15% FBS, at a temperature of 37° C., 5% CO2 and 95% humidity. Cell viability was measured using the CTG Luminescent Cell Viability Assay by standard procedures. Satraplatin was purchased from MedChemExpress (China) and cisplatin from Qilu Pharm (China), respectively. 1 mM solution of both drugs were established for storage at -20° C. as previously described (Wosikowski K et al., Cancer Chemother Pharmacol (2007) 60(4):589-600).
(§3) Cells were harvested during the logarithmic growth period and count cell number using Count-star. Cell concentrations were adjusted to 4.44×10^4 cells/mL with the respective culture medium. […] Luminescence was recorded using EnVision Multi Label Reader.
(§4) In order to calculate absolute IC50 (EC50), a dose-response curve was fitted using a nonlinear regression model with a sigmoidal dose response. […] The absolute IC50 (EC50) was calculated according to the dose-response curve generated by GraphPad Prism 5.0. The standard deviation was calculated for each dose level and each cell line and is indicated by the bars.

OCI Ly-3 cell line = assay: CellTiter-Glo luminescent cell viability assay, OCI-LY-3; assay type: cell-based, human; settings: PCNSL-like DLBCL cell line, FIG. 3K, 72h
Experimental: as §1, §2, §3, §4

OCI-LY7 cells = assay: CellTiter-Glo luminescent cell viability assay, OCI-LY-7; assay type: cell-based, human; settings: DLBCL cell line, 72h
Experimental: as §1, §2, §3, §4

[1] = test system: B-cell lymphoma cell lines (Burkitt lymphoma, mantle cell lymphoma, DLBCL); assay: CellTiter-Glo luminescent cell viability assay, B-cell lymphoma cell lines; assay type: cell-based, human; settings: mantle cell lymphoma and DLBCL cell lines, FIGS. 1-3
Experimental: as §1, §2, §3, §4

[2] = test system: T-cell lymphoma cell lines; assay: CellTiter-Glo luminescent cell viability assay, T-cell lymphoma cell lines; assay type: cell-based, human; settings: particularly ALK+ ALCL, FIG. 4A-4D
Experimental: as §1, §2, §3, §4

[3] = test system: multiple myeloma cell lines; assay: CellTiter-Glo luminescent cell viability assay, multiple myeloma cell lines; assay type: cell-based, human; settings: FIG. 5
Experimental: as §1, §2, §3, §4

[4] = test system: lymphoma and myeloma cell lines; assay: CellTiter-Glo luminescent cell viability assay, panel of 41 lymphoma and multiple myeloma cell lines; assay type: cell-based, human
Experimental: as §1, §2
Cells were harvested during the logarithmic growth period and count cell number using Count-star. Cell concentrations were adjusted to 4.44×10^4 cells/mL with the respective culture medium. Then, 90 µL cell suspensions were added in triplicate to two 96-well plates (plates A and B) with the final cell density of 4×10^3 cells/well. […] For that purpose, plates were equilibrated at RT for approximately 30 min. Then, 50 µL CTG reagent was added to each well. The content was mixed for 5 min on an orbital shaker to induce cell lysis and the plate incubated at RT for 20 min to stabilize luminescent signal. Luminescence was recorded using EnVision Multi Label Reader.
In order to calculate absolute IC50 (EC50), a dose-response curve was fitted using a nonlinear regression model with a sigmoidal dose response. The formula for calculating surviving rate is: The surviving rate (%) = (LumTest article-LumMedium control)/(LumNon-treated-LumMedium control)×100%. The absolute IC50 (EC50) was calculated according to the dose-response curve generated by GraphPad Prism 5.0. The standard deviation was calculated for each dose level and each cell line and is indicated by the bars.

[5] = test system: metastatic prostate cancer; settings: SPARC trial, patients receiving satraplatin; cited from earlier work
[6] = in vivo, po; cited from earlier work
[7] = in vivo; cited from earlier work

SMILES | IC50 values in DLBCL cell lines (DLBCL cell lines) | killing of OCI Ly-3 (OCI Ly-3 cell line) | killing of OCI-LY7 cells compared to cisplatin (OCI-LY7 cells) | inducing cell death, compared to cisplatin [1] | inducing cell death, compared to cisplatin [2] | inducing cell death, compared to cisplatin [3] | relative sensitivity of certain cell lines ([4]; DOHH2, OCI Ly19, SUDHL5, OCI Ly3, Toledo, Z138, Daudi, SUDHL1, HuT78 cell lines, FIG. 6) | IC 50 values, killing of lymphoma cell lines ([4]; FIGS. 1-6, 72h incubation) | sensitivity of all cell lines described ([4]; all tested cell lines) | patients showing a relevant PSA-response (decline of more than 50%) [5] [%] | nephro- or neurotoxicity in clinical trials [6] | CNS penetration [7]
N.N.[Cl][Pt][Cl] [cisplatin] | low micromolar or even sub-molar | – | – | – | – | – | – | – | – | – | – | –
CC(=O)[O][Pt]([NH2])([Cl])([Cl])([NH]C1CCCCC1)[O]C(C)=O [satraplatin, bis (acetato) ammine dichloro (cyclohexylamine) platinum (IV)] | low micromolar or even sub-molar | very effectively killed | significantly superior | at least equivalent to cisplatin | at least equivalent to cisplatin | at least equivalent to cisplatin | particularly sensitive | low micromolar concentrations or even lower | sensitive | 25 | no or not relevant nephro- or neurotoxicity | clinically proven meaningful CNS penetration
